Experiment: Brookfield viscosity of acyl lactylates alone and 1:1 with glycols
Format: physicochemical
Settings: Brookfield 95, 5 RPM, 25° C.; acyl lactylate alone
From the text: An advantage of compositions including an acyl lactylate and a glycol is the reduction of viscosity that is present in acyl lactylates, which is rather high and increases difficulty in processing. […] Of course, it is expected that a lowering of viscosity of the acyl lactylates would be realized in ratios of acyl lactylates:glycols other than 1:1 as well.

Compound | Viscosity
CCCCCCCCCCCC(=O)OC(C)C(=O)OC(C)C(=O)[O-].[Na+] (stereo not drawn) [Sodium Lauroyl Lactylate] | 1,520,000 cP
Sodium Isostearoyl Lactylate | 1,080,000 cP
Sodium Caproyl/Lauroyl Lactylate | 1,192,000 cP
